Assay results published in PMC4976375, “Structure of a Highly Active Cephalopod S-crystallin Mutant: New Molecular Evidence for Evolution from an Active Enzyme into Lens-Refractive Protein” (Scientific Reports, 2016).

Tests used:
Octopus GST-σ = tested on: T1, Octopus GST-σ; experiment: GSH-CDNB conjugation, absorbance […] nm; assay type: biochemical, Octopus vulgaris; details: GSH 10 mM; apparent; read-out: Km,CDNB (mM) ^c
T1 construct: gene GST-sigma

[1] = biological target: Wild-type S-crystallin (OctS4) of Octopus vulgaris (Octopus vulgaris); experiment: AUC; sedimentation velocity, 20 °C, 42,000 rpm, protein 0.025–1.0 mg/ml in 50 mM phosphate, pH 6.5; continuous c(M) distribution by SEDFIT

O=[N+]([O-])c1ccc(Cl)c([N+](=O)[O-])c1 [CDNB, 1-chloro-2,4-dinitrobenzene]
Km (Octopus GST-σ): 0.47 ± 0.04 mM

Wild-type S-crystallin (OctS4) of Octopus vulgaris (natural protein)
stoichiometry N [1]: 2
